# Test results published in ChEMBL document CHEMBL4477207, “Discovery of Novel 3-Quinoline Carboxamides as Potent, Selective, and Orally Bioavailable Inhibitors of Ataxia Telangiectasia Mutated (ATM) Kinase” (J Med Chem, 2016).
# Calls of active or inactive are those of the source. The calls are words filed in the database; no cut-off is given here.
# How the values were obtained:
# [1] = target: T1, Serine-protein kinase ATM (Homo sapiens, UniProt Q13315); assay: Inhibition of ATM phosphorylation at Ser-1981 residue in human HT-29 cells incubated for 1 hr followed by X-ray irradiation by Hoechst staining based fluorescence plate reader analysis; type: cell-based
# [2] = target: Serine/threonine-protein kinase ATR (Homo sapiens, UniProt Q13535); assay: Inhibition of ATR in human HT-29 cells assessed as reduction in Chk1 phosphorylation at Ser-345 residue after 60 mins in presence of 4-nitroquinoline-1-oxide by Hoechst 33258 staining based plate reader analysis; type: cell-based
# [3] = target: T1, Serine-protein kinase ATM; assay: Inhibition of ATM in human HT-29 cells assessed as reduction in ATM phosphorylation at Ser-1981 residue up to 30 uM incubated for 1 hr followed by X-ray irradiation by Hoeschst staining based plate reader analysis; type: cell-based
# [4] = target: Voltage-gated inwardly rectifying potassium channel KCNH2 (Homo sapiens, UniProt Q12809)
# in vitro [5] = conditions: human, hepatocytes
# in vitro [6] = conditions: rat, hepatocytes
# physchem = conditions: octanol/buffer, pH 7.4
# [7] = target: T1, Serine-protein kinase ATM; assay: Inhibition of ATM (unknown origin) using p53 as substrate incubated for 30 mins followed by substrate addition measured after 2 hrs in presence of ATP by HTRF method
# [8] = target: Serine/threonine-protein kinase mTOR (Homo sapiens, UniProt P42345); assay: Inhibition of C-terminal FLAG-tagged recombinant mTOR (1362 to 2549 residues) (unknown origin) using Biotin-Ahx-Lys-Lys-Ala-Asn-Gln-Val-Phe-Leu-Gly-Phe-Thr-Tyr-Val-Ala-Pro-Ser-Val-Leu-Glu-Ser-Val-Lys-Glu-NH2 as substrate after 90 mins by AlphaScreen assay
# [9] = target: DNA-dependent protein kinase catalytic subunit (Homo sapiens, UniProt P78527); assay: Inhibition of DNAPK (unknown origin) using p53-based peptide substrate preincubated for 5 min prior to ATP addition
# [10] = target: Phosphatidylinositol 4,5-bisphosphate 3-kinase catalytic subunit alpha isoform (Homo sapiens, UniProt P42336); assay: Inhibition of human recombinant PI3Kalpha using PIP2/ATP as substrate incubated for 20 mins followed by substrate addition by Kinase Glo reagent based luminescence assay
# [11] = target: Phosphatidylinositol 4,5-bisphosphate 3-kinase catalytic subunit beta isoform (Homo sapiens, UniProt P42338); assay: Inhibition of human recombinant PI3Kbeta using PIP2/ATP as substrate incubated for 20 mins followed by substrate addition by Kinase Glo reagent based luminescence assay
# [12] = target: Phosphatidylinositol 4,5-bisphosphate 3-kinase catalytic subunit gamma isoform (Homo sapiens, UniProt P48736); assay: Inhibition of human recombinant PI3Kgamma using PIP2/ATP as substrate incubated for 20 mins followed by substrate addition by Kinase Glo reagent based luminescence assay
# Homo sapiens = organism: Homo sapiens; assay: Selectivity ratio of IC50 for ATR in human HT-29 cells to IC50 for ATM in human HT-29 cells; type: cell-based
# 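Wherever logD is given: determined by the shake flask method.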
# T1 sequence (Q13315 whole entry): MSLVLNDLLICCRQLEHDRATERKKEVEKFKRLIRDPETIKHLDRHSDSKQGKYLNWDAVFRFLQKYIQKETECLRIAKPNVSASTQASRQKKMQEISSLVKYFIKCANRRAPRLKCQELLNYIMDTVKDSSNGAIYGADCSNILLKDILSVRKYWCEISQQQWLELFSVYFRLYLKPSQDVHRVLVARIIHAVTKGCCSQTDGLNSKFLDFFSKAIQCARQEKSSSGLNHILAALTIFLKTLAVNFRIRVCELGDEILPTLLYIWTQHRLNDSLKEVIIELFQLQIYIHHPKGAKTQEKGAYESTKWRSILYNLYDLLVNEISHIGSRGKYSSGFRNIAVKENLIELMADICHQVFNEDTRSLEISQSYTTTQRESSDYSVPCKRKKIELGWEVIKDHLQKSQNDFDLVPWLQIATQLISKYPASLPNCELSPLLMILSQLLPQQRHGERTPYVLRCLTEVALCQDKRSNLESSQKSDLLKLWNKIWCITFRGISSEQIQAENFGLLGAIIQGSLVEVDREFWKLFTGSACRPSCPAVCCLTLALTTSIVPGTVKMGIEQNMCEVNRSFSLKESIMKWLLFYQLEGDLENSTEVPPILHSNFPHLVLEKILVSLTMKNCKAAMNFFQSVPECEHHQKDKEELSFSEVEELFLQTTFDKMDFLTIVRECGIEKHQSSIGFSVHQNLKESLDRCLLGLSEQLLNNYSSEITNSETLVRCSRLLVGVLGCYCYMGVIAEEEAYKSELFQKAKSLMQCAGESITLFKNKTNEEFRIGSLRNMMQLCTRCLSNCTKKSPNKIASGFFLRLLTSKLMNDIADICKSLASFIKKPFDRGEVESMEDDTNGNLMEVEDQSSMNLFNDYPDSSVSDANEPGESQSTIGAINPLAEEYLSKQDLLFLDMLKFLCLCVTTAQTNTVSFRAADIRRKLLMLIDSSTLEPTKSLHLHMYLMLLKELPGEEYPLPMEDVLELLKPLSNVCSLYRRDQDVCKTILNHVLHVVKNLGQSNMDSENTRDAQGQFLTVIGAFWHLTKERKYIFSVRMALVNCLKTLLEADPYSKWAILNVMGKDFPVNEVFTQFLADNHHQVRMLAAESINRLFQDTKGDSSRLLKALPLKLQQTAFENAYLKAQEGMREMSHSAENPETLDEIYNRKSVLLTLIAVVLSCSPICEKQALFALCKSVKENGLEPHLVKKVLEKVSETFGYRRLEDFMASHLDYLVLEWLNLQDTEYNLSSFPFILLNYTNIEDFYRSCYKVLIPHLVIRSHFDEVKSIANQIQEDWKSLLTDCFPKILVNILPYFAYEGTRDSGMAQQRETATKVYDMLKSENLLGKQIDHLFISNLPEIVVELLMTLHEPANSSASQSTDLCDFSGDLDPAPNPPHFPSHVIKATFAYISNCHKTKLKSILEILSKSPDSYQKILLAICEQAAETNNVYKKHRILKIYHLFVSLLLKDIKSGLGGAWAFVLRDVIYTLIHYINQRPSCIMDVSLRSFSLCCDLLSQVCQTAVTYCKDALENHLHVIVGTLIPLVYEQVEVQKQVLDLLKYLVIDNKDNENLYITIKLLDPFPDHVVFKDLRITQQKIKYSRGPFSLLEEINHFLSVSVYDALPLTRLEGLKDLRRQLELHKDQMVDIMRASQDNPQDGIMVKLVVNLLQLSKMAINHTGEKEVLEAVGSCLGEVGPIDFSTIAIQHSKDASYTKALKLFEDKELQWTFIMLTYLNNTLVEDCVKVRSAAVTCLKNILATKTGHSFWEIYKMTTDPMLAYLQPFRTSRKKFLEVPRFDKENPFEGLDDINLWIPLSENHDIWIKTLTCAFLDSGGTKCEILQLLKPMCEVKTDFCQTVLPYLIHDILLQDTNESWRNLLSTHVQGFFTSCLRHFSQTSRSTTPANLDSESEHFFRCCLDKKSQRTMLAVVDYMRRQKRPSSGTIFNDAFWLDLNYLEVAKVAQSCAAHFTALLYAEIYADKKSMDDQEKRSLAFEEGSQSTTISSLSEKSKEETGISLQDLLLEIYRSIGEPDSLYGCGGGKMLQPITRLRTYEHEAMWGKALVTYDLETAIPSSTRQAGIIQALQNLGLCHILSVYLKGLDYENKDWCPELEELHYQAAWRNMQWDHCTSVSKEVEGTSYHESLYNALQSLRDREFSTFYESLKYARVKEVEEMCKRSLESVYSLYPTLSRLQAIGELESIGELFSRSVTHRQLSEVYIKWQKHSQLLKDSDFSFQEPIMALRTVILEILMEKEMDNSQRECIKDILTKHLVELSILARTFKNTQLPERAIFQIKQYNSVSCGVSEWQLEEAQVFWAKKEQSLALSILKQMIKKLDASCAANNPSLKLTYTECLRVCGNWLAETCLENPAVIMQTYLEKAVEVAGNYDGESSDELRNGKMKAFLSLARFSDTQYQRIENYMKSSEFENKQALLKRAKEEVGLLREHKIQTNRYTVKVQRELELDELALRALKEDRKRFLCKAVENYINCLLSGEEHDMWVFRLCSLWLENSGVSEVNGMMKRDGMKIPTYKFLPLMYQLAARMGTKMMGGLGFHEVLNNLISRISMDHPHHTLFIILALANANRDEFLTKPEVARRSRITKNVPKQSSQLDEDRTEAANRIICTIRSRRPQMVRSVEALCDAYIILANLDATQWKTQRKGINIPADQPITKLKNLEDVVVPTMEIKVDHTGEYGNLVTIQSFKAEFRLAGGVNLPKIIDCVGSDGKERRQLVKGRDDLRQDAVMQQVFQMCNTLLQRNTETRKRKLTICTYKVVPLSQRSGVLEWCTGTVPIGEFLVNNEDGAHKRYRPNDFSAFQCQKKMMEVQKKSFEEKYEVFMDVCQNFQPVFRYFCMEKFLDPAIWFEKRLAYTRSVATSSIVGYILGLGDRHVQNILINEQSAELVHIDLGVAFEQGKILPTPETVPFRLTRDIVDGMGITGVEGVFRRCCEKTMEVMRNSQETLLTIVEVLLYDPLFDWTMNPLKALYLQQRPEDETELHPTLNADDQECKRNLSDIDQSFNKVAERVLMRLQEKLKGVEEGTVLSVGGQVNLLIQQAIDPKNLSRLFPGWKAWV
# Voltage-gated inwardly rectifying potassium channel KCNH2, sequence (Q12809 whole entry): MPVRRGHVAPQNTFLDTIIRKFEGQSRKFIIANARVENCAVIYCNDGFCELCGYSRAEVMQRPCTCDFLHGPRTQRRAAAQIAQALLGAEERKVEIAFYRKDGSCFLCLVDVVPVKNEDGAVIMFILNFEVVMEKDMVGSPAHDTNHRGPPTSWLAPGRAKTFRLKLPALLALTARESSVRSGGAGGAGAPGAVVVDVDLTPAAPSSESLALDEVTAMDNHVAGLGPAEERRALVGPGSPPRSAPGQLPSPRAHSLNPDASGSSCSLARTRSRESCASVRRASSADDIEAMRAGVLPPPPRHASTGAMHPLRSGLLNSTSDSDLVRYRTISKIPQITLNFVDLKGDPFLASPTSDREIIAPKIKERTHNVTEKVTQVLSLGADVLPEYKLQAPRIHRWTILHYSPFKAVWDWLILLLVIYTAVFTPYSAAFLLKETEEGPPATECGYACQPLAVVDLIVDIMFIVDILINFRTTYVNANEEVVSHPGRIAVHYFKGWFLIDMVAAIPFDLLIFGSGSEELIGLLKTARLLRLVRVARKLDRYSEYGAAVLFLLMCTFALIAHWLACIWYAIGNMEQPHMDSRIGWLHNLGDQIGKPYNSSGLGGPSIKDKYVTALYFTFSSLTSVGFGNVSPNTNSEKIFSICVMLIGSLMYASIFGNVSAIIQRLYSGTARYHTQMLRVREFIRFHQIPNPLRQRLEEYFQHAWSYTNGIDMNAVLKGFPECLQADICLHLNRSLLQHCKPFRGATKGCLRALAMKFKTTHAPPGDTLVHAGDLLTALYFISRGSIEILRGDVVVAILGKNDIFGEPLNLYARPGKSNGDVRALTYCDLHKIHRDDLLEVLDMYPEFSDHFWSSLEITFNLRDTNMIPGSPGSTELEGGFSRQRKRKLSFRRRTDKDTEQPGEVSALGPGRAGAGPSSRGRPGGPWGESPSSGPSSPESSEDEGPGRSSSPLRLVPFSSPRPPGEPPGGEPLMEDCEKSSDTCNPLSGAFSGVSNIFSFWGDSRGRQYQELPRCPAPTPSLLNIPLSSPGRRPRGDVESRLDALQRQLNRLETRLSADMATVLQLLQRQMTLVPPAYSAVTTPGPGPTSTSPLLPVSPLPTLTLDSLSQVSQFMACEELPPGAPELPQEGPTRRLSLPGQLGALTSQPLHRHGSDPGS
IC50 [1] [nM],IC50 [2] [nM],inhibition [3],hepatocyte CLint at 1.5 h (in vitro [5]) [µL/min/1e6 cells],hepatocyte CLint at 1.5 h (in vitro [6]) [µL/min/1e6 cells],logD (physchem),IC50 [7] [nM],IC50 [8] [nM],IC50 [9] [nM],IC50 [10] [nM],IC50 [11] [nM],IC50 [12] [nM],Structure (SMILES),IC50 [4] [nM],Ratio IC50 (Homo sapiens)
> 30000,> 30000,inactive,42,260,> 4.3,–,–,–,–,–,–,CCC(CC)COc1c(C(N)=O)cnc2ccc(-c3cccnc3)cc12,2100,–
–,–,inactive,–,–,–,–,–,–,–,–,–,Cc1ccc([C@@H](C)Nc2c(C(N)=O)cnc3ccc(C#N)cc23)cc1,–,–
109,1900,–,11,70,> 4.3,2,181,5,8,21,45,C[C@@H](Nc1c(C(N)=O)cnc2ccc(-c3cccnc3)cc12)c1ccc(Cl)cc1,–,> 10
